A short description of assay [1]: Antioxidant activity assessed as DPPH radical scavenging activity incubated for 1 hr by spectrophotometric analysis. It counts as functional.
The target of a further assay is Alpha glucosidase (Homo sapiens, UniProt O43451+P10253+P14410+Q2M2H8). Briefly: Inhibition of alpha-glucosidase (unknown origin). It is filed as protein assay.

Structures are written as SMILES. pIC50: −log10 of the molar value. Active and inactive are the calls of the source. The calls are words filed in the database; no cut-off is given here.

Usually pIC50 stands for the IC50 on a negative log10 scale, so that one unit is a factor of ten. What is called IC50 is the midpoint of a concentration-inhibition curve. Read a low IC50 as inhibition by little substance. As for `CCOC(=O)C1=C(C)NC(SC)N(C)C1c1ccccc1` (configuration not stated), the pIC50 in assay [1] was 4.67. At Alpha glucosidase, this compound yielded an IC50 of 24.2 µM.
Consider `CCOC(=O)C1=C(C)NC(SC)N(C)C1c1ccc([N+](=O)[O-])cc1` (configuration not stated), for which, in assay [1], the pIC50 was 4.21. Moreover, the IC50 on Alpha glucosidase was 33.3 µM.
Regarding `COc1ccc(O)c(C(C)(C)C)c1`, in assay [1], the pIC50 is 4.35.
For `CCOC(=O)C1=C(C)NC(NN)N(C)C1c1ccccc1.Cl.Cl` (configuration not stated), the pIC50 in assay [1] is 4.04. Moreover, the IC50 against Alpha glucosidase was found to be 31.1 µM.
Taken in the same sequence, the figures for `CCOC(=O)C1=C(C)n2nnnc2N(C)C1c1ccccc1.Cl.Cl` (configuration not stated) were 4.48 and 39.4 µM.
Taken in the same sequence, the figures for `CCOC(=O)C1=C(C)NC(SC)N(C)C1c1ccc(C)cc1` (configuration not stated) were 4.06 and 44.4 µM.
Taken in the same sequence, the figures for `CCOC(=O)C1=C(C)NC(NN)N(C)C1c1ccc(C)cc1.Cl.Cl` (configuration not stated) were 4.07 and 71.1 µM.
`CC1=C(C(=O)[C@H](C)c2ccccc2)C(c2ccccc2)NC(=S)N1` (some centres not stated): in assay [1], the pIC50 is 4.16. Also, the IC50 against Alpha glucosidase was 76.2 µM.
Taken in the same sequence, the figures for `CCOC(=O)C1=C(C)NC(SC)N(C)C1c1cccc(O)c1` (configuration not stated) were 4.53 and 21.5 µM.
Taken in the same sequence, the figures for `CCOC(=O)C1=C(C)NC(NN)N(C)C1c1cccc(O)c1.Cl.Cl` (configuration not stated) were 4.10 and 62.7 µM.
For the compound `COC(=O)C1=C(C)n2nnnc2N(C)C1c1ccccc1.Cl.Cl` (configuration not stated), the pIC50 in assay [1] was 4.26. This compound registered an IC50 against Alpha glucosidase of 65.1 µM.
With `CCOC(=O)C1=C(C)NC(SC)N(C)C1c1cccc(OC)c1OC` (configuration not stated), in assay [1], the pIC50 was 4.41. The same compound returned an IC50 at Alpha glucosidase of 35.9 µM.
Taken in the same sequence, the figures for `CC1=C(C(=O)[C@H](C)c2ccccc2)C(c2ccccc2Cl)NC(=S)N1` (some centres not stated) were 4.51 and 23.3 µM.
Taken in the same sequence, the figures for `CCOC(=O)C1=C(C)n2nnnc2N(C)C1c1cccc(O)c1.Cl.Cl` (configuration not stated) were 4.31 and 45.6 µM.
Regarding `CC1=C(C(=O)O)C(c2ccc(C)cc2)NC(=S)N1` (configuration not stated), the pIC50 in assay [1] is 4.04. At Alpha glucosidase, this compound displayed a half-inhibitory concentration (IC50) of 39.2 µM.
In the case of `CC1=C(C(=O)[C@H](C)c2ccccc2)C(c2ccc(C)cc2)NC(=S)N1` (some centres not stated), the result in assay [1] was inactive. The same compound registered an IC50 at Alpha glucosidase of 41.2 µM.
As for `CC1=C(C(=O)[C@@H](C)c2ccccc2)C(c2ccc(C)cc2)NC(=S)N1` (some centres not stated), the outcome in assay [1] was inactive. At Alpha glucosidase, this compound registered an IC50 of 47.3 µM.
On to `COC(=O)C1=C(C)NC(SC)N(C)C1c1ccccc1` (configuration not stated), for which the pIC50 in assay [1] was 4.16. On Alpha glucosidase, this compound returned an IC50 of 84.2 µM.
For `CCOC(=O)C1=C(C)n2nnnc2N(C)C1c1ccc(C)cc1.Cl.Cl` (configuration not stated), the pIC50 in assay [1] was 4.17. The IC50 against Alpha glucosidase came out at 61.1 µM.
Taken in the same sequence, the figures for `CC1=C(C(=O)[C@@H](C)c2ccccc2)C(c2ccccc2)NC(=S)N1` (some centres not stated) were 4.17 and 61.1 µM.
Taken in the same sequence, the figures for `CC1=C(C(=O)O)C(c2ccccc2Cl)NC(=S)N1` (configuration not stated) were 4.34 and 12.5 µM.
Regarding `CCOC(=O)C1=C(C)NC(NN)N(C)C1c1ccc([N+](=O)[O-])cc1.Cl.Cl` (configuration not stated), the pIC50 in assay [1] is 4.18. Also, the IC50 at Alpha glucosidase was 72.4 µM.
On to `CC1=C(C(=O)[C@@H](C)c2ccccc2)C(c2ccccc2Cl)NC(=S)N1` (some centres not stated), for which the pIC50 in assay [1] was 4.53. The compound further gave an IC50 at Alpha glucosidase of 18.9 µM.
Taken in the same sequence, the figures for `CC1=C(C(=O)O)C(c2ccccc2)NC(=S)N1` (configuration not stated) were 4.22 and 89.5 µM.

For the origin of these results see ChEMBL document CHEMBL6087403 (Bioorg Med Chem Lett, 2025).
